The source of these data is patent publication US7744867B2, “PTPase inhibitors and method of using same” (The Cleveland Clinic Foundation, priority 2001, dated 2010).

Data set [1] is described as follows: Tolerability in nude mice (viability, body weight, appearance). It is filed as in vivo. The procedure:
The effective dosage of sodium stibogluconate against WM9 and DU145 xenografts is well tolerated in nude mice. […] Thus dosage is much higher than the standard dose for Leishmaniasis (20 mg Sb/kg, daily). As an initial step to assess the toxicity of such a high dosage of sodium stibogluconate in nude mice, its effect on the viability and body weights of WM9 xenografts nude mice during the 25 day period of the study was determined.

A further data set concerns the target T1, recombinant PRL-2 (Homo sapiens, UniProt Q12974).
T1 construct: made in house; host or cells: E. coli DH5α
T1 sequence (Q12974 1-167): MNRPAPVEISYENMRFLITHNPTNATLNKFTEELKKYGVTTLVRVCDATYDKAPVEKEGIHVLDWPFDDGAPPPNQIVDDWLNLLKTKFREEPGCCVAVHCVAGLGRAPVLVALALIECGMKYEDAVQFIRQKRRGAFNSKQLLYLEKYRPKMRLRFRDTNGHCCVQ
Description: In vitro PTPase assay with recombinant PRL. Conditions: washing process / stable complex. It is filed as biochemical. The procedure: In vitro PTPase activities were measured using the commercial protein tyrosine phosphatase assay kit (UBI) following established procedure. […] 100 μl of Malachite Green solution was added and incubated for 5 minutes, and the absorbance at 660 nm was measured after 5 minutes.
Recombinant GST fusion proteins of human PRL-1, 2 and 3 phosphatases were purified with glutathione beads from DH5α bacteria transformed by pGEX vectors containing cDNA fragments encoding the human PRLs which were generated by RT-PCR from H9 cells and confirmed by sequence analysis. Activities of the purified recombinant PRL proteins in dephosphorylating DiFMUP in the absence or presence of various inhibitors were measured following established procedure.
To assess whether sodium stibogluconate is an inhibitor of oncogenic PRL phosphatases, its effects on the PTPase activity of recombinant PRLs were evaluated by in vitro PTPase assays.

Another data set relates to prostate cancer. The settings on record: cited from earlier work.
The next data set relates to H9 cells (T-lymphoma). As to the kind of experiment: Growth inhibition of human tumor cell lines. It is filed as cell-based. The settings on record: SS 12.5 μg/ml, IFNα 1,000 u/ml, alone or combined.
Data set [2] relates to WM9 human melanoma xenografts. As to the kind of experiment: Xenografts of human melanoma in nude mice, tumor volume. Conditions: day 25, IFNα 500,000 U s.c. daily, sodium stibogluconate 12 mg Sb s.c. daily. It is filed as in vivo. From the text: FIG. 11 illustrates that sodium stibogluconate appears to synergize with IFNα against WM9 human melanoma tumors in nude mice. IFNα or both on the growth of xenografts of human melanoma cell line WM9 and human prostate carcinoma cell line DU-145 in athymic nude mice. Nude mice of 4 weeks old were inoculated subcutaneously (s.c.) with WM9 human melanoma cells (3×10^6 cells/site) (A) or DU-145 human prostate cancer cells (2×10^6 cells/site) (B) on day 0. Starting on day 2, the mice were subjected to no treatment (Control) or treatment with IFNα (500,000 U, s.c., daily), sodium stibogluconate (12 mg, s.c., daily) or both (Combo). Tumor volume in the nude mice (4 mice/group, 2 tumors/mouse) was measured on the days as indicated. Tumor volume was calculated by the equation: (length×width^2)/2 to compare tumor growth rates. All mice survived by the end of the experiment. […]
For each of the cell lines, each of 16 mice received subcutaneous injection at the chest area of 3×10^6 cells/site (WM9) or 2×10^6 cells/site (DU145), two sites/mouse, on day 0. […] Tumor size was measured with a caliper to determine the two perpendicular diameters of each tumor. Tumor volume was calculated using the method of the NCI (length×width^2 in millimeters/2=volume in cubic millimeters). […]
Background: A xenograft is tissue or cells of one species grown in another, often human tumour cells in immunodeficient mice.

A further data set relates to WM35 cells (Melanoma). Description: Growth inhibition of human tumor cell lines. It is filed as cell-based. The settings on record: SS 12.5 μg/ml, IFNα 1,000 u/ml, alone or combined.
In another data set the test system is U266 cells. Description: Apoptotic cells by Annexin V/propidium iodide assay. Conditions: sodium stibogluconate 100 μg/ml, IFNα 1000 u/ml, 3 days, control 8%. Format: cell-based, human. Here is the method:
Detection of apoptotic cells by Annexin V/propidium iodide assay. Annexin V staining of exposed membrane phospholipid phosphatidylserine (PS) was done using the Annexin V assay kit (Pharmingen, San Diego, Calif.). Briefly, U266 or WM9 cells were cultured in the 10% FCS RPMI 1640 medium in the absence or presence of sodium stibogluconate, IFNα, or both for 3 days. Cells were then washed in PBS twice and stained in binding buffer (10 mM Hepes, pH 7.4; 140 mM NaCl; 2.5 mM CaCl2) containing Annexin V-FITC and propidium iodide for 15 min. The reaction was stopped by adding 10 volumes of binding buffer and analyzed by FACS (Becton Dickinson Facsvantage) or fluorescent microscopy.

On to `O.O.O.O.O.O.O.O.O.O=C([O-])[C@@H]1[O][Sb]2([O-])([O][Sb]34([OH])[O][C@H]([C@H](O)CO)[C@H]([O]3)[C@H](C(=O)[O-])[O]4)[O][C@H]([C@H](O)CO)[C@@H]1[O]2.[Na+].[Na+].[Na+]` [sodium stibogluconate], for which the tolerability result in data set [1] (12 mg Sb daily (440 mg Sb/kg daily), s.c., 25 day study) is listed as “well tolerated with no serious side effect”. Further, the “daily dose that mice could tolerate” value in data set [1] (pilot study, approximately 700-800 mg Sb/kg) is 20 mg Sb. For the same compound, at recombinant PRL-2, the “reversibility of PRL-2 inactivation” value is recorded as “irreversibly inhibits”.

Regarding IFNα, the “patients in whom the cytokine is effective” value in the data set with prostate cancer is listed as 5%. The “% of growth inhibition by day 6 (±s.d.)” value in the data set on H9 cells (T-lymphoma) was 86 (3) %; with WM35 cells (Melanoma), 19 (3) %. Besides, the “average tumor volume, of the control group” value in data set [2] is given as “approximately 40%”. Further, the “percentage of apoptotic cells” value in the data set with U266 cells is 16%.
